Test results taken from a melting point compilation (Tetko et al.).

Cc1ccc(C(F)(F)F)cc1N
melting point: 38 °C

Clc1ccc(I)cc1Cl
melting point: 30 °C

CN1CCN(Cc2ccc(C#N)cc2)CC1
melting point: 69 to 71 °C

Cc1nc(-c2ccccc2)ncc1CO
melting point: 85 to 86 °C

COc1cccc(C(=O)N(NC(=O)c2ccccc2)C(C)(C)C)c1
melting point: 188 °C

CCCC1Nn2c(nnc2-c2cccc([N+](=O)[O-])c2)S1 (centres undefined)
melting point: 129 °C

CN1C(=O)c2ccccc2C1OC(=O)c1ccccc1 (centres undefined)
melting point: 93 °C

O=[N+]([O-])c1cc([N+](=O)[O-])c(C(Cl)=Cc2ccccc2)cc1/C=C\c1ccccc1
melting point: 191 °C

Cn1nc(CCl)c2ccccc21
melting point: 62 to 63 °C

CCc1nnc(-c2ccccn2)nc1CC
melting point: 70 °C

O=C(O)c1cc(F)c(F)c(F)c1F
melting point: 88 to 89 °C

O=C1c2ccccc2C(=O)C1c1cc(Cl)c([N+](=O)[O-])cc1[N+](=O)[O-]
melting point: 185 °C

Cc1nn(-c2ccccc2)nc1CO
melting point: 75 to 76 °C

CCOC(=O)c1ncn2c1CN(C)C(=O)c1cc(F)ccc1-2
melting point: 202 °C

Oc1ccc(O)c(C=NCCN=Cc2cc(O)ccc2O)c1
melting point: 125 to 127 °C

C=CC(C)(C)C(=O)O
melting point: -6 °C

CC(C)(C)c1ccc(C2CCC3(CC2)Cc2ccc(C(=O)Nc4ccccc4OCCCC(=O)O)cc2C3)cc1 (centres undefined)
melting point: 150 °C

C=CC1CN2CCC1CC2c1[nH]c2ccccc2c1CCO (centres undefined)
melting point: 186 °C

CCOC(=O)c1nnc(N)o1
melting point: 199 to 201 °C

Clc1cccc(I)c1Cl
melting point: 35 °C

FC(F)(F)C(F)(F)C(F)(F)C(F)(F)C(F)(F)C(F)(F)C(F)(F)C(F)(F)C(F)(F)C(F)(F)C(F)(F)C(F)(F)I
melting point: 99 to 101 °C

CCCCCCNC(=O)c1ccc(O)c(O)c1
melting point: 140 °C

COc1cc(CNC(=O)c2[nH]c3ccccc3c2CCO)cc(OC)c1
melting point: 185 to 187 °C

NN=C1c2ccccc2-c2ccccc21
melting point: 152 °C

CC(=O)CCc1oc2ccc(NC(C)=O)cc2c1-c1ccc(C)o1
melting point: 131 to 132 °C

CC(C)C(Nc1ccc(C(F)(F)F)cc1Cl)C(=O)OC(C#N)c1cccc(Oc2ccccc2)c1 (centres undefined)
melting point: 25 °C

OCC(O)C(O)C(OC1OC(CO)C(O)C(O)C1O)C(O)CO (centres undefined)
melting point: 151 °C

O=C(Nc1ccc2ncccc2c1)Nc1ccc2ncccc2c1
melting point: 262 °C

Oc1ccc(CCc2nnc(S)n2-c2ccc(F)cc2)cc1
melting point: 204 to 205 °C

COC(=O)c1ccc2[nH]ccc2c1
melting point: 125 °C

Cc1cc(O)c(C(c2ccc([N+](=O)[O-])cc2)c2c(O)cc(C)oc2=O)c(=O)o1
melting point: 238 to 240 °C

Cc1ccc2ccccc2c1N
melting point: 32 °C

O=C(NC(=O)c1c(F)cccc1F)Nc1ccc(OC(F)(F)C(F)OC(F)(F)F)c(Cl)c1 (centres undefined)
melting point: 178 °C

N#CC(N)C(N)=O (centres undefined)
melting point: 120 to 124 °C

CC12CCC(=O)C=C1CCC1C2C(O)CC2(C)C1CCC2(O)C(=O)CO (centres undefined)
melting point: 223 °C

Nc1ccc(S(=O)(=O)c2ccc([N+](=O)[O-])cc2)cc1
melting point: 170 °C

CC(=O)Oc1ccc(O)cc1
melting point: 62 °C

CCOC(=O)C(Cl)(Cc1cc(CC(Cl)(C(=O)OCC)C(=O)OCC)c([N+](=O)[O-])cc1[N+](=O)[O-])C(=O)OCC
melting point: 146 °C

COc1ccc(Br)c([N+](=O)[O-])c1
melting point: 31 °C

CNN=C(N)C(S)=NNC
melting point: 185 °C

COc1ccc(C(=O)C(=O)c2ccc(OC)cc2)cc1
melting point: 131 to 134 °C

Cc1ccc2c(c1)/C(=N/NC(N)=O)CC2C (centres undefined)
melting point: 227 °C

NS(=O)(=O)c1ccc(Cl)c(S(N)(=O)=O)c1
melting point: 207 °C

NC(=S)Nc1cccnc1
melting point: 159 to 160 °C

O=C1Cc2cccc(F)c21
melting point: 41 °C

Nc1ccc2c(c1)C(=O)c1ccccc1-2
melting point: 152 to 157 °C

O=C1C2=C(NC1C(=O)c1ccc(Br)cc1)Oc1c(c(=O)oc3ccccc13)C2c1ccc(Br)cc1 (centres undefined)
melting point: 230 °C

O=S(=O)(O)c1ccc(O)c2ncccc12
melting point: 322 °C

CCC(=O)CC#N
melting point: 29 °C

O=C(O)c1ccc2cc(C(=O)O)ccc2c1
melting point: 300 °C

C1CC12CC2
melting point: -135 °C

CC(=O)OCC1=CC2OC(=O)C3=COC(OC4OC(CO)C(O)C(O)C4O)C1C32 (centres undefined)
melting point: 132 °C

OCCN1CCNC1=S
melting point: 136 to 138 °C

COC(=O)c1cccc2[nH]ccc12
melting point: 70 °C

CC(C)C1=C(O)C(=O)C2=C(C1=O)[C@@H]1O[C@@H]1[C@H]1C(C)(C)CCC[C@]21C
melting point: 202 °C

CC(CO)NC(=O)C1C=C2c3cccc4[nH]cc(c34)CC2N(C)C1 (centres undefined)
melting point: 162 °C

Oc1cc(F)c(F)c(F)c1
melting point: 54 °C

O=C(Nc1ccccc1)OCc1ccccc1[N+](=O)[O-]
melting point: 141 °C

O=C(c1ccccc1)c1cnc2ccccn2c1=O
melting point: 152 to 153 °C

CC1(C)C2CCC1(C)C(NC(=O)c1ccccc1)C2NC(=O)c1ccccc1 (centres undefined)
melting point: 148 °C

CC(C)(C)C(N)C(=O)O (racemic)
melting point: 300 °C

CC(=O)N1C(=O)/C(=C(\C#Cc2ccccc2)C(=O)c2ccccc2)c2ccccc21
melting point: 189 °C

O=C(O)C=Cc1ccc(Oc2ccccc2)nc1
melting point: 204 to 206 °C

Cc1ccc(N=C2NCCN2)c(Cl)c1
melting point: 149 °C

FC(F)=C(F)F
melting point: -142 °C

CC1(C)CCC(Cc2ccc(Cl)cc2)C1(O)Cn1cncn1 (centres undefined)
melting point: 112 °C

NC(=O)C1(N2CCCCC2)CCNCC1
melting point: 129 to 132 °C

COC(=O)C1=C(C)NC(C)=C(C(=O)OC)C1c1ccccc1[N+](=O)[O-]
melting point: 173 °C

NC(=O)CN1Cc2ccccc2OC1=O
melting point: 203 °C

CCCCCCCCCC(=O)OC
melting point: -18 °C

O=C(C=Cc1ccc(O)cc1)c1ccccc1
melting point: 184 °C

COc1ccc(-c2cc(=O)c3c(O)c(OC)c(OC)cc3o2)cc1O
melting point: 191 °C

CCCCC#CCCCCC
melting point: -74.1 °C

Cc1c2ccccc2c(C)c2ccccc12
melting point: 183 °C

COc1ccc(C)cc1
melting point: -32 °C

N=C(N)NCCCC(NC(=O)c1ccccc1)C(=O)O (centres undefined)
melting point: 285 °C

C=C=Cn1cnc2c(N)ncnc21
melting point: 186 °C

CCCCc1ccc(C(=O)O)nc1
melting point: 97 °C

Cc1nnc(SCc2ccccc2)n1N=Cc1ccc(Cl)cc1
melting point: 120 to 121 °C

CCN(CC)CCNC(=O)c1cc(S(C)(=O)=O)ccc1OC
melting point: 124 °C

COc1ccccc1-c1nc(CCl)no1
melting point: 66 to 67 °C

O=C1CCCCCCC1
melting point: 40.5 °C

O=Cc1ccc(-c2ccc(C(F)(F)F)cc2Cl)o1
melting point: 86 to 87 °C

O=C1NC(=O)c2cccc3cccc1c23
melting point: 301 to 302 °C

Cc1ccc(C(N)C(N)c2ccc(C)cc2)cc1 (centres undefined)
melting point: 113 to 117 °C

O=C(O)c1cc(O)[nH]c(=O)c1
melting point: 300 °C

Oc1cc(F)cc(F)c1F
melting point: 29 °C

O=C1Nc2c(Cl)cccc2C1=O
melting point: 190 °C

COC(=O)CCC(C)C1CCC2C3C(=O)CC4CCCCC4(C)C3CC(=O)C12C (centres undefined)
melting point: 140 °C

O=S1(=O)OC(c2ccc(O)cc2)(c2ccc(O)cc2)c2ccccc21
melting point: 300 °C

CCCCCCCCOc1ccc(N)cc1
melting point: 35 to 39 °C

O=C(CCCl)c1ccc(Br)cc1
melting point: 60 °C

O=CNc1ccc(Cl)cc1C(=O)c1ccccc1
melting point: 89 to 91 °C

CC(=O)N(Nc1ccccc1)c1ccc(N=Nc2ccccc2)cc1
melting point: 186 °C

O=C(O)c1cscc1Sc1ccc(Cl)cc1
melting point: 195 to 198 °C

Cc1ccc(/C=N/c2nc(C(F)(F)F)n[nH]2)cc1
melting point: 207 to 209 °C

COc1ccc(-c2nnc3n2NC(c2ccc(OC)cc2)S3)cc1 (centres undefined)
melting point: 152 °C

CCOP(=S)(OCC)Oc1nc(Cl)n(C(C)C)n1
melting point: < 25 °C

Cc1ccc(S(=O)(=O)OCc2c(F)c(F)c(F)c(F)c2F)cc1
melting point: 78 °C

Fc1cnc(Cl)nc1Cl
melting point: 38 °C

COCC(=O)c1ccccc1
melting point: 8 °C

COC(=O)c1cc(O)nc(O)n1
melting point: 244 °C

CC(=O)NC1=NC(=O)C(=Cc2coc3ccc(Br)cc3c2=O)N1C
melting point: 259 to 261 °C

O=C(Nc1ccccc1)c1ccccc1I
melting point: 137 °C

N#C/C(=N\Nc1ccc(S(=O)(=O)O)cc1)c1nc2ccccc2s1
melting point: 193 °C

Cc1cc(O)c(C(C)(C)C)cc1Sc1cc(C(C)(C)C)c(O)cc1C
melting point: 162 °C

CC1CCC(C(C)C)C(OC(=O)C(C=Cc2ccccc2)C(=O)c2ccccc2)C1 (centres undefined)
melting point: 104 °C

CCc1ccc(C(N)=O)cc1
melting point: 163 °C

CCCCCCCC(=O)OCCCCC
melting point: -34.8 °C

CC(=O)Oc1ccc2ccccc2c1
melting point: 69 °C

CCCCOc1ccc(N=Nc2ccc(N)nc2N)cn1
melting point: 129 °C

C#CC(O)c1ccccc1 (centres undefined)
melting point: 28 °C

CCOC(=O)CN(C)C(=O)c1nn(-c2ccccc2)nc1C
melting point: 72 to 74 °C

Brc1ccc(N2CCCCC2)cc1
melting point: 75 to 76 °C

COc1cc(O)c(C=O)c(OC)c1
melting point: 70 °C

NC(=O)N1CCCCC1
melting point: 105 °C

O=C1C(=O)c2c3ccccc3cc3cccc1c23
melting point: 268 to 270 °C

Nc1ccc(NC(=O)C(F)(F)F)cc1
melting point: 118 °C

CCn1c2ccccc2c2cc(N)ccc21
melting point: 99 °C

CC(=O)Nc1ccc(Cl)cc1Cl
melting point: 147 °C

CCc1[nH]c2ccccc2c1C
melting point: 62 to 65 °C

CCOC(=O)/C(=N\Nc1cc(Cl)ccc1Cl)C(=O)C(F)(F)F
melting point: 146 °C

N#CCc1cccc(Cl)c1Cl
melting point: 66 to 69 °C

CC(=O)n1nc(C(F)(F)F)cc1-c1ccccc1
melting point: 77 °C
